Values of other authors, collected in patent publication US6443892B1, “Sweat collecting device and methods for use and detection of tampering” (The United States of America as represented by the …, priority 2000, dated 2002).

Key:
[1] = basic media
[2] = hydrophilic dye; hydration of inner pad not reported

SMILES	earliest collection time with detectable concentrations after drugs placed on outside of membrane [1]	CFWO through membrane [2]
CC(=O)Oc1ccc2c3c1O[C@H]1[C@@H](OC(C)=O)C=C[C@H]4[C@@H](C2)N(C)CC[C@@]341 [heroin]	approximately 30 seconds	
CN[C@@H](C)Cc1ccccc1 [methamphetamine]	approximately 30 seconds	
CCN(CC)c1ccc2c(-c3ccccc3C(=O)O)c3ccc(=[N+](CC)CC)cc-3oc2c1.[Cl-] [rhodamine B]		No CFWO was observed
